# Laboratory results published in patent EP4063344A1, “SALT OF 2-ADAMANTYL ACETIC ACID HAVING ANTI-VIRAL ACTIVITY, FORMULATIONS THEREOF AND USES THEREOF” (Sciamannini, Umbro, priority 2021, dated 2022).
# Tested on: viral and/or fungal and/or bacterial
# Conditions: no test conditions given
substance,measurement,value
"1-hexadecanaminium, N,N,N,trimethyl-tricyclo[3.3.1.13,7]decane-2-acetate(1:1) [salt of the invention]",viral and/or fungal and/or bacterial inhibition action,greater than 4 log
